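Dose response: 5 concentrations. Exposure: 48 h. Format: 96-well plates. Endpoint: linear interpolation; highest concentration if not reached. The concentration for full growth arrest is given as TGI.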
Columns and labels:
Experiment in all cases: growth of human tumour cells (NCI), 48 h
[1] = system: LOX IMVI melanoma
[2] = system: HL-60(TB) leukemia
[3] = system: OVCAR-8 ovarian
[4] = system: HCC-2998 colon
[5] = system: SNB-19 CNS
[6] = system: NCI-H522 lung
[7] = system: UACC-257 melanoma
[8] = system: IGROV1 ovarian
[9] = system: SW-620 colon
[10] = system: HCT-15 colon
[11] = system: SK-MEL-5 melanoma
[12] = system: SN12C renal
[13] = system: A549 NSCLC
[14] = system: OVCAR-4 ovarian
[15] = system: TK-10 renal
[16] = system: CCRF-CEM leukemia
[17] = system: SK-OV-3 ovarian
[18] = system: MCF7 breast
[19] = system: SF-295 CNS
[20] = system: T-47D breast
[21] = system: SK-MEL-28 melanoma
[22] = system: OVCAR-3 ovarian
[23] = system: NCI-H23 lung
[24] = system: HT29 colon
[25] = system: K-562 leukemia
[26] = system: NCI/ADR-RES ovarian
[27] = system: MDA-MB-231 breast
[28] = system: M14 melanoma
[29] = system: HOP-92 NSCLC
[30] = system: CAKI-1 renal
[31] = system: OVCAR-5 ovarian
[32] = system: UO-31 renal
[33] = system: NCI-H460 lung
[34] = system: MDA-N
[35] = system: NCI-H226 lung
[36] = system: DU-145 prostate
[37] = system: ACHN renal
[38] = system: HOP-62 NSCLC
[39] = system: SNB-75 CNS
[40] = system: SR leukemia
[41] = system: PC-3 prostate
[42] = system: RPMI-8226 leukemia
[43] = system: HCT-116 colon
[44] = system: HS 578T breast
[45] = system: U251 CNS
[46] = system: SK-MEL-2 melanoma
[47] = system: COLO 205 colon
[48] = system: EKVX NSCLC
[49] = system: A498 renal
[50] = system: KM12 colon
[51] = system: MALME-3M melanoma
[52] = system: MOLT-4 leukemia
[53] = system: 786-0 renal

Measured: TGI

CCP(=S)(CC)CCl
not listed: [48] | [49] | [50] | [51] | [52] | [53]
> 100 µM: all other assays above

O=[N+]([O-])c1ccc2nc3n(c2c1)C(c1c(F)cccc1F)SC3 (stereo not drawn)
> 10 µM: [3] | [11] | [13] | [20] | [25] | [42]
not listed: [2] | [4] | [6] | [10] | [14] | [28] | [29] | [30] | [32] | [39] | [46] | [47]
> 100 µM: all other assays above
